Experimental data reported in patent US20080064679A1, “Water Soluble Cannabinoids” (priority 2004, published 2008).
Read-outs that look alike come from different tables or passages of the source.

Assays:
[1] = Procedure: By “water-soluble” we mean that 1 mg of material in 1 ml of water gives a clear solution and is water miscible.
(§1) For the in vivo studies, the drugs were dissolved in either saline or emulphor:ethanol:saline (E:E:S) as indicated.

[2] = biological target: T1, human CB1 receptor (Homo sapiens, UniProt P21554); experiment: CB1 receptor binding, [3H]CP55,940 displacement in membranes of transfected cells; conditions: CB1 Ki
T1 construct: expressed in transfected cells; b94 says CHO for CB1
T1 sequence (P21554 whole entry): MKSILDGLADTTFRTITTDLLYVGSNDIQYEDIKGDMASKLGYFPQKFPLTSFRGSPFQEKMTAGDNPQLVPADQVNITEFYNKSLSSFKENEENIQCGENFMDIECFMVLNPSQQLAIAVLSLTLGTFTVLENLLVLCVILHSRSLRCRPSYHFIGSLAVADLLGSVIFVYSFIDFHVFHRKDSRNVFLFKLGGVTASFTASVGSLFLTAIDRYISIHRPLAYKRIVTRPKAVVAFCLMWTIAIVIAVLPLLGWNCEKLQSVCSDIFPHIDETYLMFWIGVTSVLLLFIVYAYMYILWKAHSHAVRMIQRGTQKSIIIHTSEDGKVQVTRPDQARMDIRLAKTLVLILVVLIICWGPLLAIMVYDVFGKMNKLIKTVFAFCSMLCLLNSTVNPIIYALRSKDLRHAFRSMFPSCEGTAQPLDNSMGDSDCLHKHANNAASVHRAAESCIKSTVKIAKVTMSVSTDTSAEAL
Procedure: as §1
(§2) cLogP calculations. Absolute solubility determinations were not performed. Rather, cLogP calculations were performed using the CS ChemDraw Ultra software (Cambridge Soft Corporation, Cambridge, Mass.). Receptor Binding. HEK-293 cells stably expressing the human CB1 receptor were cultured in DMEM with 10% FBS and Chinese Hamster Ovary (CHO) cells stably expressing the human CB2 receptor were cultured in DMEM with 10% FCS. Cells were harvested by replacement of the media with cold phosphate-buffered saline containing 1 mM EDTA followed by centrifugation at 1000×g for 5 min at 4° C. The pellet was resuspended in 50 mM Tris-HCl containing 320 mM sucrose, 2 mM EDTA and 5 mM MgCl2 (pH 7.4) (centrifugation buffer), then centrifuged at 1000×g for 10 min at 4° C., and the resulting supernatant was saved. This process was repeated twice. The supernatant fractions were combined and centrifuged at 40,000×g for 30 min at 4° C. The resulting P2 pellet was resuspended in assay buffer (50 mM Tris-HCl (pH 7.4), 3 mM MgCl2, 0.2 mM EGTA, and 100 mM NaCl) and protein was determined by the method of Bradford ENRfu(Bradford 1976). Membranes were stored at −80° C. until use. […] The assay was incubated at 30° C. for 1 hr and terminated by addition of ice cold 50 mM Tris-HCl plus BSA (1 mg/ml) (pH 7.4) followed by filtration under vacuum through Whatman GF/B glass fiber filters with 3 washes with cold Tris buffer. Bound radioactivity was determined by liquid scintillation spectrophotometry at 50% efficiency after extraction by shaking samples for 30-60 min with Budget-Solve scintillation fluid. Data are reported as the mean±SEM of three experiments, each performed in triplicate. Ki values were calculated from displacement data using EBDA (Equilibrium Binding Data Analysis; BIOSOFT, Milltown, N.J.). [^35S]GTPγS Binding Assays. Concentration-effect curves were generated by incubating membranes (10 μg prepared from CB1 expressing cells as described above) in assay buffer containing BSA (1 mg/ml) with various concentrations of test compounds in the presence of 20 μM GDP and 0.1 nM [^35S]GTPγS in a 1 ml total volume. […] Basal binding was assessed in the absence of agonist, and nonspecific binding was measured in the presence of 10 μM GTPγS. The reaction was incubated for 90 min at 30° C. and terminated by filtration under vacuum through Whatman GF/B glass fiber filters with 3 washes with cold (4° C.) Tris buffer (50 mM Tris-HCl, pH 7.4). Bound radioactivity was determined by liquid scintillation spectrophotometry at 95% efficiency after extraction overnight in ScintiSafe Econo 1 scintillation fluid. Data are reported as mean±SEM of three experiments, each performed in triplicate. Nonlinear regression analysis was conducted by iterative fitting using JMP (SAS for Macintosh). Net-stimulated [^35S]GTPγS binding is defined as [^35S]GTPγS binding in the presence of drug minus basal and percent stimulation is expressed as (net stimulated [^35S]GTPγS binding/basal)×100%. Behavioral Evaluations. All animals were allowed to acclimate to the observation room overnight. Behavioral effects were assessed in the tetrad model in order to measure potency in producing antinociception, catalepsy, hypothermia, and hypomobility. The baselines for tail-flick latency (2-4 seconds) and rectal temperature were determined prior to i.v. injections. Baseline rectal temperatures were measured using a telethermometer and a thermometer probe inserted to 25 mm (Yellow Springs Instrument Co., Yellow Springs, Ohio). The mice were then given either an i.v. i.c.v. injection of the analog. The mice were placed in individual photocell activity chambers 5 min later. Spontaneous activity was monitored for 10 min in a Digiscan Animal Activity Monitor (Omnitech Electronice, Inc., Columbus, Ohio) as measured by the number of interruptions of 16 photocell beams per chamber.

[3] = biological target: T2, human CB2 receptor (Homo sapiens, UniProt P34972); experiment: CB2 receptor binding, [3H]CP55,940 displacement in membranes of transfected cells; conditions: Table 1B, mean±SEM
T2 construct: expressed in transfected cells; b94 says HEK for CB2
T2 sequence (P34972 whole entry): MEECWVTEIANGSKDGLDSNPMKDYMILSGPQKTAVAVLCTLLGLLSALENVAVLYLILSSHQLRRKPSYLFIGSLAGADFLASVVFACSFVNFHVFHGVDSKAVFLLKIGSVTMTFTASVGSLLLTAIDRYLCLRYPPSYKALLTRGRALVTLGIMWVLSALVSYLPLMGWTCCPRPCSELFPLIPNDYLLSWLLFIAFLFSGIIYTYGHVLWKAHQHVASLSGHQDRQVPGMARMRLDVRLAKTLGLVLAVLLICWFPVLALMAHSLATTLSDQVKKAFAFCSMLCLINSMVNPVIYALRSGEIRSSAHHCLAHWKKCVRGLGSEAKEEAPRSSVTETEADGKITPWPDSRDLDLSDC
Procedure: as §2, with “chamber. The total number of beam interruptions during the 10-min period was determined and presented as total counts.” for “chamber.”

[4] = biological target: T1, human CB1 receptor; experiment: [35S]GTPγS binding assay in membranes of CB1 expressing cells; assay type: biochemical
Procedure: as §1, §2

[5] = test system: mice; experiment: Rectal temperature (R.T.), mouse tetrad; assay type: in vivo; conditions: Mus musculus, iv, vehicle E:E:S (1:1:18), read-out: R.T. ED50 (lowering rectal temperature)
[6] = test system: mice; experiment: Tetrad model, all four behavioral measures together (time course, oral and i.c.v. administration); assay type: in vivo, mouse; conditions: i.c.v.; analogs dissolved in water, THC in emulphor:ethanol:saline; Table 5 not given
[7] = test system: mice; experiment: Tail-flick antinociception (T.F.), mouse tetrad; assay type: in vivo; conditions: Mus musculus, iv, mice, i.v., vehicle E:E:S (1:1:18); read-out: T.F. ED50 (antinociception in the tail-flick procedure)
[8] = test system: mice; experiment: Spontaneous activity (S.A.), mouse tetrad; assay type: in vivo; conditions: Mus musculus, iv, vehicle E:E:S (1:1:18), read-out: S.A. ED50 (reducing spontaneous activity)
[9] = 1 mg of analog in 1 ml of water, visual observation

Structure (SMILES): CC1=CC[C@@H]2[C@@H](C1)c1c(O)cc(C(C)(C)CCCCNC(=O)Cc3nc(-c4ccccc4)oc3C)cc1OC2(C)C [O-2590, 5-Methyl-2-phenyl-oxazol-4-yl-acetamide]
- Solubility (water-soluble) [1, 9]: No
- Ki ([2]; Table 1B, mean±SEM): 890 ± 161 nM
- Ki ([3]; CB2 Ki): 169 ± 39.1 nM

Structure (SMILES): CC1=CC[C@@H]2[C@@H](C1)c1c(O)cc(C(C)(C)CCCCNC(=O)N3CCOCC3)cc1OC2(C)C [O-2619, Morpholino-1-carboxylic acid amide]
- EC50 ([4]; CB1 EC50, [35S]GTPγS binding, mean±SEM): 86 ± 3.1 nM
- Emax ([4]; maximal GTPγS binding as percentage of stimulation produced by CP 55,940, read-out: CB1 % CP Stim): 116 ± 7.94%
- Solubility (water-soluble) [1]: No
- Ki [2]: 18.6 ± 3.94 nM
- Ki ([3]; read-out: CB2 Ki): 2.26 ± 0.38 nM

Structure (SMILES): CC1=CC[C@@H]2[C@@H](C1)c1c(O)cc(C(C)(C)CCCCN(C(=O)N3CCOCC3)C(=O)N3CCOCC3)cc1OC2(C)C [O-2620, Di(morpholino-1-carboxylic acid) amide]
- Ki [2]: 3020 ± 579 nM
- Ki ([3]; read-out: CB2 Ki): 772 ± 60.5 nM

Structure (SMILES): CCCCCc1cc(O)c2c(c1)OC(C)(C)C1CCC(C)=CC21 (stereo not drawn) [Δ^9-THC, Δ^9-tetrahydrocannabinol, reference compound]
- ED50 [5]: 2.23 µmol/kg
- Solubility (water-soluble) [1, 9]: No
- Activity in the behavioral tests after i.c.v. injection [6]: active with similar potencies in all tests, with the exception of weak antinociceptive activity
- ED50 [7]: 2.77 µmol/kg
- ED50 [8]: 2.23 µmol/kg
